Tests used:
[1] = molecular target: GDP-bound HRAS wild-type protein (Homo sapiens, UniProt P01112); assay: Binding to HRAS by surface plasmon resonance (SPR), Single Cycle Kinetics; conditions: KD ratio, GDP-bound HRAS wild-type vs GDP-bound KRAS wild-type, SPR
[2] = molecular target: GDP-bound NRAS wild-type protein (Homo sapiens, UniProt P01111); assay: Binding to NRAS by surface plasmon resonance (SPR), Single Cycle Kinetics; conditions: KD ratio, GDP-bound NRAS wild-type vs GDP-bound KRAS wild-type, SPR
GDP-bound NRAS wild-type protein, sequence (P01111 whole entry): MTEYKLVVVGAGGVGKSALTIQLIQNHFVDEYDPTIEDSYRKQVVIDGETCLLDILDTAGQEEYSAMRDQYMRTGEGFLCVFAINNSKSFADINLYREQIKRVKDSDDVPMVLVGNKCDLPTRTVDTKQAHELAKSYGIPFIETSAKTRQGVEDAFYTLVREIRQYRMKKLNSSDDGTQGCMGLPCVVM

GDP-bound HRAS wild-type protein, sequence (P01112 whole entry): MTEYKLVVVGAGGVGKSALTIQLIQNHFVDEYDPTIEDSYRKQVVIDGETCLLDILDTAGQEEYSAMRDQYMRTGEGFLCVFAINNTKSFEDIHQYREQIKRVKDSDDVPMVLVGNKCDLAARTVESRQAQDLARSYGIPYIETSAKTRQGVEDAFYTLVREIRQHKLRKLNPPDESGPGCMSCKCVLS

Structure (SMILES)	HRAS/KRAS (ratio of KD value with respect to HRAS to KD value with respect to KRAS) [1]	NRAS/KRAS (ratio of KD value with respect to NRAS to KD value with respect to KRAS) [2]
CCO[C@@H]1C[C@H]2C(=O)NC3(CCC3)C(=O)N(C)[C@@H](CC(F)F)C(=O)N(C)[C@H](C(=O)N3CCOCC3)CC(=O)N(C)[C@@H](CC(C)C)C(=O)N[C@@H]([C@@H](C)CC)C(=O)N(C)CC(=O)N(C)[C@H]3CCCCCN(C3=O)[C@@H](Cc3ccc(C(F)(F)F)cc3)C(=O)N(C)CC(=O)N[C@@H](CCc3cc(F)c(C(F)(F)F)c(F)c3)C(=O)N2C1 [PP0822]	B (a compound having 3 or more and less than 10 is denoted as B)	B (a compound having 3 or more and less than 10 is denoted as B)
CCO[C@@H]1C[C@H]2C(=O)NC3(CCC3)C(=O)N(C)[C@@H](C(C)(C)C)C(=O)N(C)[C@H](C(=O)N3CCOCC3)CC(=O)N(C)[C@@H](CC(C)C)C(=O)N[C@@H]([C@@H](C)CC)C(=O)N(C)CC(=O)N(C)[C@H]3CCCCCN(C3=O)[C@@H](Cc3ccc(C(F)(F)F)cc3)C(=O)N(C)CC(=O)N[C@@H](CCc3cc(F)c(C(F)(F)F)c(F)c3)C(=O)N2C1 [PP0823]	B (a compound having 3 or more and less than 10 is denoted as B)	A (a compound having 10 or more and less than 20 is denoted as A)
CCO[C@@H]1C[C@H]2C(=O)NC3(CCC3)C(=O)N(C)[C@@H](C3CCCC3)C(=O)N(C)[C@H](C(=O)N(C)C)CC(=O)N(C)[C@@H](CC)C(=O)N[C@@H]([C@@H](C)CC)C(=O)N(C)CC(=O)N(C)[C@H]3C/C=C\CCN(C3=O)[C@@H](Cc3ccc(C(F)(F)F)cc3)C(=O)N(C)CC(=O)N[C@@H](CCc3cc(F)c(C(F)(F)F)c(F)c3)C(=O)N2C1 [PP0824]	A (a compound having 10 or more and less than 20 is denoted as A)	A (a compound having 10 or more and less than 20 is denoted as A)
CCO[C@@H]1C[C@H]2C(=O)NC3(CCC3)C(=O)N(C)[C@@H](C3CCCC3)C(=O)N(C)[C@H](C(=O)N3CCOCC3)CC(=O)N(C)[C@@H](CC(C)C)C(=O)N[C@@H]([C@@H](C)CC)C(=O)N(C)CC(=O)N(C)[C@H]3C/C=C\CCN(C3=O)[C@@H](Cc3ccc(C(F)(F)F)cc3)C(=O)N(C)CC(=O)N[C@@H](CCc3ccc(C(F)(F)F)c(Cl)c3)C(=O)N2C1 [PP0825]	A (a compound having 10 or more and less than 20 is denoted as A)	A (a compound having 10 or more and less than 20 is denoted as A)
CCO[C@@H]1C[C@H]2C(=O)NC3(CCC3)C(=O)N(C)[C@@H](C3CCCC3)C(=O)N(C)[C@H](C(=O)N3CCOCC3)CC(=O)N(C)[C@@H](CC(C)C)C(=O)N[C@@H]([C@@H](C)CC)C(=O)N(C)CC(=O)N(C)[C@H]3CC=C(C)CN(C3=O)[C@@H](Cc3ccc(C(F)(F)F)cc3)C(=O)N(C)CC(=O)N[C@@H](CCc3cc(F)c(C(F)(F)F)c(F)c3)C(=O)N2C1 [PP0826]	B (a compound having 3 or more and less than 10 is denoted as B)	C (A compound having a KD ratio of 0.1 or more and less than 3 is denoted as C)
CCO[C@@H]1C[C@H]2C(=O)NC3(CCC3)C(=O)N(C)[C@@H](C3CCCC3)C(=O)N(C)[C@H](C(=O)N(C)C)CC(=O)N(C)[C@@H](CC)C(=O)N[C@@H]([C@@H](C)CC)C(=O)N(C)CC(=O)N(C)[C@H]3CC=C(C)CN(C3=O)[C@@H](Cc3ccc(C(F)(F)F)cc3)C(=O)N(C)CC(=O)N[C@@H](CCc3cc(F)c(C(F)(F)F)c(F)c3)C(=O)N2C1 [PP0827]	C (A compound having a KD ratio of 0.1 or more and less than 3 is denoted as C)	C (A compound having a KD ratio of 0.1 or more and less than 3 is denoted as C)
CCO[C@@H]1C[C@H]2C(=O)NC3(CC(F)(F)C3)C(=O)N(C)[C@@H](C3CCCC3)C(=O)N(C)[C@H](C(=O)N3CCOCC3)CC(=O)N(C)[C@@H](CC(C)C)C(=O)N[C@@H]([C@@H](C)CC)C(=O)N(C)CC(=O)N(C)[C@H]3CC=C(C)CN(C3=O)[C@@H](Cc3ccc(C(F)(F)F)cc3)C(=O)N(C)CC(=O)N[C@@H](CCc3cc(F)c(C(F)(F)F)c(F)c3)C(=O)N2C1 [PP0828]	C (A compound having a KD ratio of 0.1 or more and less than 3 is denoted as C)	C (A compound having a KD ratio of 0.1 or more and less than 3 is denoted as C)
CCO[C@@H]1C[C@H]2C(=O)NC3(CCC3)C(=O)N(C)[C@@H](C3CCCC3)C(=O)N(C)[C@H](C(=O)N3CCOCC3)CC(=O)N(C)[C@@H](CC(C)C)C(=O)N[C@@H]([C@@H](C)CC)C(=O)N(C)CC(=O)N(C)[C@H]3C[C@H]4C[C@H]4CN(C3=O)[C@@H](Cc3ccc(C(F)(F)F)cc3)C(=O)N(C)CC(=O)N[C@@H](CCc3cc(F)c(C(F)(F)F)c(F)c3)C(=O)N2C1 [PP0829]	C (A compound having a KD ratio of 0.1 or more and less than 3 is denoted as C)	B (a compound having 3 or more and less than 10 is denoted as B)
CCO[C@@H]1C[C@H]2C(=O)NC3(CCC3)C(=O)N(C)[C@@H](C3CCCC3)C(=O)N(C)[C@H](C(=O)N(C)C)CC(=O)N(C)[C@@H](CC)C(=O)N[C@@H]([C@@H](C)CC)C(=O)N(C)CC(=O)N(C)[C@H]3C[C@H]4C[C@H]4CN(C3=O)[C@@H](Cc3ccc(C(F)(F)F)cc3)C(=O)N(C)CC(=O)N[C@@H](CCc3cc(F)c(C(F)(F)F)c(F)c3)C(=O)N2C1 [PP0830]	C (A compound having a KD ratio of 0.1 or more and less than 3 is denoted as C)	C (A compound having a KD ratio of 0.1 or more and less than 3 is denoted as C)
CCO[C@@H]1C[C@H]2C(=O)NC3(CC(F)(F)C3)C(=O)N(C)[C@@H](C3CCCC3)C(=O)N(C)[C@H](C(=O)N3CCOCC3)CC(=O)N(C)[C@@H](CC(C)C)C(=O)N[C@@H]([C@@H](C)CC)C(=O)N(C)CC(=O)N(C)[C@H]3C[C@H]4C[C@H]4CN(C3=O)[C@@H](Cc3ccc(C(F)(F)F)cc3)C(=O)N(C)CC(=O)N[C@@H](CCc3cc(F)c(C(F)(F)F)c(F)c3)C(=O)N2C1 [PP0831]	C (A compound having a KD ratio of 0.1 or more and less than 3 is denoted as C)	C (A compound having a KD ratio of 0.1 or more and less than 3 is denoted as C)
CCO[C@@H]1C[C@H]2C(=O)NC3(CCC3)C(=O)N(C)[C@@H](C3CCCC3)C(=O)N(C)[C@H](C(=O)N3CCOCC3)CC(=O)N(C)[C@@H](CC(C)C)C(=O)N[C@@H]([C@@H](C)CC)C(=O)N(C)CC(=O)N(C)[C@H]3CC=CCN(C3=O)[C@@H](Cc3ccc(C(F)(F)F)cc3)C(=O)N(C)CC(=O)N[C@@H](CCc3cc(F)c(C(F)(F)F)c(F)c3)C(=O)N2C1 [PP0832]	C (A compound having a KD ratio of 0.1 or more and less than 3 is denoted as C)	C (A compound having a KD ratio of 0.1 or more and less than 3 is denoted as C)
CC[C@H](C)[C@@H]1NC(=O)[C@H](COC)N(C)C(=O)C[C@@H](C(=O)N2CCOCC2)N(C)C(=O)[C@H](C2CCCC2)N(C)C(=O)C2(CCC2)NC(=O)[C@@H]2CC(F)(F)CN2C(=O)[C@H](CCc2cc(F)c(C(F)(F)F)c(F)c2)NC(=O)CN(C)C(=O)[C@H](Cc2ccc(C(F)(F)F)cc2)N2CCCCC[C@@H](C2=O)N(C)C(=O)CN(C)C1=O [PP0834]	B (a compound having 3 or more and less than 10 is denoted as B)	A (a compound having 10 or more and less than 20 is denoted as A)
CC[C@H](C)[C@@H]1NC(=O)[C@H](COC)N(C)C(=O)C[C@@H](C(=O)N2CCOCC2)N(C)C(=O)[C@H](C2CCCC2)N(C)C(=O)C2(CCC2)NC(=O)[C@@H]2C[C@H](OC)CN2C(=O)[C@H](CCc2cc(F)c(C(F)(F)F)c(F)c2)NC(=O)CN(C)C(=O)[C@H](Cc2ccc(C(F)(F)F)cc2)N2CCCCC[C@@H](C2=O)N(C)C(=O)CN(C)C1=O [PP0836]	B (a compound having 3 or more and less than 10 is denoted as B)	B (a compound having 3 or more and less than 10 is denoted as B)
CC[C@H](C)[C@@H]1NC(=O)[C@H](COC)N(C)C(=O)C[C@@H](C(=O)N2CCOCC2)N(C)C(=O)[C@H](C2CCCC2)N(C)C(=O)C2(CCC2)NC(=O)[C@@H]2C[C@@H](OC)CN2C(=O)[C@H](CCc2cc(F)c(C(F)(F)F)c(F)c2)NC(=O)CN(C)C(=O)[C@H](Cc2ccc(C(F)(F)F)cc2)N2CCCCC[C@@H](C2=O)N(C)C(=O)CN(C)C1=O [PP0837]	B (a compound having 3 or more and less than 10 is denoted as B)	B (a compound having 3 or more and less than 10 is denoted as B)
CCCO[C@@H]1C[C@H]2C(=O)NC3(CCC3)C(=O)N(C)[C@@H](C3CCCC3)C(=O)N(C)[C@H](C(=O)N3CCOCC3)CC(=O)N(C)[C@@H](COC)C(=O)N[C@@H]([C@@H](C)CC)C(=O)N(C)CC(=O)N(C)[C@H]3CCCCCN(C3=O)[C@@H](Cc3ccc(C(F)(F)F)cc3)C(=O)N(C)CC(=O)N[C@@H](CCc3cc(F)c(C(F)(F)F)c(F)c3)C(=O)N2C1 [PP0838]	B (a compound having 3 or more and less than 10 is denoted as B)	B (a compound having 3 or more and less than 10 is denoted as B)
CC[C@H](C)[C@@H]1NC(=O)[C@H](COC)N(C)C(=O)C[C@@H](C(=O)N2CCOCC2)N(C)C(=O)[C@H](C2CCCC2)N(C)C(=O)C2(CCC2)NC(=O)[C@@H]2C[C@@H](OCC(C)C)CN2C(=O)[C@H](CCc2cc(F)c(C(F)(F)F)c(F)c2)NC(=O)CN(C)C(=O)[C@H](Cc2ccc(C(F)(F)F)cc2)N2CCCCC[C@@H](C2=O)N(C)C(=O)CN(C)C1=O [PP0839]	B (a compound having 3 or more and less than 10 is denoted as B)	B (a compound having 3 or more and less than 10 is denoted as B)
